{"source": "patent US20190078102A1", "about": "“BIOSYNTHETIC PRODUCTION OF STEVIOL GLYCOSIDES AND PROCESSES THEREFORE” (Conagen-Inc., priority 2017, published 2019)", "origin": "cited, not measured here", "details": "background statement", "data": [{"smiles": "C=C1C[C@@]23CC[C@H]4[C@@](C)(CCC[C@@]4(C)C(=O)O[C@@H]4O[C@H](CO)[C@@H](O)[C@H](O)[C@H]4O)[C@@H]2CC[C@]1(O[C@@H]1O[C@H](CO)[C@@H](O)[C@H](O)[C@H]1O[C@@H]1O[C@H](CO)[C@@H](O)[C@H](O)[C@H]1O)C3", "note": "[stevioside]", "values": [{"measurement": "times sweeter than sucrose", "result": "100-150 times"}]}]}
